Read-outs that look alike come from different tables or passages of the source.
Assays:
FGFR1 = molecular target: T1, FGFR1 (Homo sapiens, UniProt P11362); assay: Kinase binding assay (kinase-tagged T7 phage, affinity beads, qPCR), Kd
T1 construct: made in house; host or cells: E. coli (BL21-derived), T7 phage
Method in brief: (§1)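 Competition binding; kinase-tagged T7 phage lysate vs immobilised biotinylated ligand on streptavidin beads, 0.9% DMSO final. 11-pt 3-fold dilutions, 3 DMSO controls. qPCR of eluted kinase; Kd by Hill fit, slope −1.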

FGFR2 = molecular target: T2, FGFR2 (Homo sapiens, UniProt P21802); assay: as above
T2 construct: made in house; host or cells: E. coli (BL21-derived), T7 phage
Method in brief: as §1

FGFR3 = molecular target: T3, FGFR3 (Homo sapiens, UniProt P22607); assay: as above
T3 construct: made in house; host or cells: E. coli (BL21-derived), T7 phage
Method in brief: as §1

FGFR3 (V555M) = molecular target: T4, FGFR3 (V555M) (Homo sapiens, UniProt P22607, V555M); assay: as above
T4 construct: made in house; host or cells: E. coli (BL21-derived), T7 phage
Method in brief: as §1

FGFR4 = molecular target: T5, FGFR4 (Homo sapiens, UniProt P22455); assay: as above
T5 construct: made in house; host or cells: E. coli (BL21-derived), T7 phage
Method in brief: as §1

[1] = system: KG-1 cell line (FGFR 1-fusion); assay: Cancer cell line cell viability assay (Cell Titer-Glo), 72 hr; assay type: cell-based; conditions: Homo sapiens
Method in brief: (§2)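 Following overnight attachment, each line receives compound in triplicate across nine 4-fold dilutions starting at 3 μM, with DMSO backfill for equal solvent. Luminescence after Cell Titer-Glo 2.0 addition gives percent viability versus DMSO control, fitted by 4-parameter logistic for IC50.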

[2] = system: RT112/84 cell line (FGFR3-fusion); assay: as above; assay type: cell-based; conditions: Homo sapiens
Method in brief: as §2

[3] = system: KATO-III cell line (FGFR2 amplification); assay: as above; assay type: cell-based; conditions: Homo sapiens
Method in brief: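 Cells seeded at 5,000-20,000/well, incubated overnight, then treated with a 9-dose, 4-fold dilution series from 3 μM in triplicate at 37° C, 5% CO2. Viability read by Cell Titer-Glo 2.0 luminescence as percent of DMSO control; IC50 from 4-parameter variable-slope sigmoidal fit.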

[4] = V555M mutant, read-out: FGFR3 (V555M) (Kd nM)
[5] = KG-1, KG-1 cell line (FGFR1-fusion)
[6] = RT112/84, RT112/84 cell line (FGFR3-fusion)
[7] = RT112/84 cell line (FGFR3-fusion)

T1 sequence (P11362 22-822): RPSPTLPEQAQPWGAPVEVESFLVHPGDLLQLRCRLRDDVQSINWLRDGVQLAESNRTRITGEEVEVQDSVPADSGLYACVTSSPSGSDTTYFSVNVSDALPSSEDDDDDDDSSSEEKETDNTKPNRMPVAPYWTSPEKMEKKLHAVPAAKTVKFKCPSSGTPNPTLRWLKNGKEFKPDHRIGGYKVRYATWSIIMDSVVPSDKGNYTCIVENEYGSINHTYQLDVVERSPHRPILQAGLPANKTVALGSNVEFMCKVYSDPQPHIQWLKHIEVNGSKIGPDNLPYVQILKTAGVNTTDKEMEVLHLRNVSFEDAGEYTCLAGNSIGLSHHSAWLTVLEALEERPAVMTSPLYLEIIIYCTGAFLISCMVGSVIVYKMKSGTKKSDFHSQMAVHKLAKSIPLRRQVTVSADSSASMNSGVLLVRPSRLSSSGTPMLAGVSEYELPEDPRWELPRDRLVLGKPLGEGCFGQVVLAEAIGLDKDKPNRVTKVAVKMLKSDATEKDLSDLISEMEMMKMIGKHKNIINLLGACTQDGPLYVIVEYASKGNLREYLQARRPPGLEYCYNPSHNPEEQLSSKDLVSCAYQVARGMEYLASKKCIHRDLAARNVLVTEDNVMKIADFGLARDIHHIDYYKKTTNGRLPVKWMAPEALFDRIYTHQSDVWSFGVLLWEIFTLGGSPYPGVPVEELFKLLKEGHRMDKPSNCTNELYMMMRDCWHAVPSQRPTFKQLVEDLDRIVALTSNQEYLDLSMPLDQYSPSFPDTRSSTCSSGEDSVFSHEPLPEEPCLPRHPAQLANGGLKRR
T4 sequence (P22607 23-806 V555M): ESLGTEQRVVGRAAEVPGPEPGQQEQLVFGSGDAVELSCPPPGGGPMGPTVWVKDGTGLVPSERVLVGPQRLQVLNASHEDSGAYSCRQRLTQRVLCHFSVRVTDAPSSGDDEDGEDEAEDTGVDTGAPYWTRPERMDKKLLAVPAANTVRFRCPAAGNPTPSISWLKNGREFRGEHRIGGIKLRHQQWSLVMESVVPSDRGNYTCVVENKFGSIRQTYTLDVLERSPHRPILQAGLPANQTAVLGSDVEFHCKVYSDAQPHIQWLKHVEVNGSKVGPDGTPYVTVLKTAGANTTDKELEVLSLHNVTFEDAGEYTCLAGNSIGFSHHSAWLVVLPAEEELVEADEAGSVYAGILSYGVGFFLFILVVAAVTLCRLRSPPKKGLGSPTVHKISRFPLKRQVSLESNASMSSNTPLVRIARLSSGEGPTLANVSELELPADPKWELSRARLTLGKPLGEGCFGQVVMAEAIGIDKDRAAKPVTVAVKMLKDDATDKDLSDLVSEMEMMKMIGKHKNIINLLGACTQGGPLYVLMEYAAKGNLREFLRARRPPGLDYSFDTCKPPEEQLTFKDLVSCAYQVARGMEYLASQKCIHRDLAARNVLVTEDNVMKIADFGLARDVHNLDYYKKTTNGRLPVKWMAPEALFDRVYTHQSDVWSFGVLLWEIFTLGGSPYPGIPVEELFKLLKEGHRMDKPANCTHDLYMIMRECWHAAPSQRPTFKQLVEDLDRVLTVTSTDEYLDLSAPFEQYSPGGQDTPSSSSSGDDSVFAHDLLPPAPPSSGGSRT
T2 sequence (P21802 22-821): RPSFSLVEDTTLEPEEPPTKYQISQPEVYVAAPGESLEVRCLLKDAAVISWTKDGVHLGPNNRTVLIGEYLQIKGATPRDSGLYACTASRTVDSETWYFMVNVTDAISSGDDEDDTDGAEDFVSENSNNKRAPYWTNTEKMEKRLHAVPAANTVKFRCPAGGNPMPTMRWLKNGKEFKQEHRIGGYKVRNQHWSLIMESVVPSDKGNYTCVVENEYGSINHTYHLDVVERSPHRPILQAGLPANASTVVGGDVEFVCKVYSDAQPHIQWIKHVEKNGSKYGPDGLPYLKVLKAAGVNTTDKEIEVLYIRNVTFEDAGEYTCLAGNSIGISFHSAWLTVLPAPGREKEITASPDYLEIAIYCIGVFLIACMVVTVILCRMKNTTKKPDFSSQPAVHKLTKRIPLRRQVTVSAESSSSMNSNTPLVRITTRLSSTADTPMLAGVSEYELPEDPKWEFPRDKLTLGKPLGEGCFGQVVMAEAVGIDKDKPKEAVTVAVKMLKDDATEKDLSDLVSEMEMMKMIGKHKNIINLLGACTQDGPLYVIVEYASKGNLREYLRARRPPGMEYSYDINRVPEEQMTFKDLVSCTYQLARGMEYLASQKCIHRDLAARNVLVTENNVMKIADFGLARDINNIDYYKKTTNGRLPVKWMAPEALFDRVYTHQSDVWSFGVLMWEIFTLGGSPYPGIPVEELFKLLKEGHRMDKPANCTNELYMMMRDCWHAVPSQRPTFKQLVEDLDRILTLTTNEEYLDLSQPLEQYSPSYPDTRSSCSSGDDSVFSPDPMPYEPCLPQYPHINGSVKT
T3 sequence (P22607 23-806): as the sequence (P22607 23-806 V555M) above, with M533V counted along it
T5 sequence (P22455 22-802): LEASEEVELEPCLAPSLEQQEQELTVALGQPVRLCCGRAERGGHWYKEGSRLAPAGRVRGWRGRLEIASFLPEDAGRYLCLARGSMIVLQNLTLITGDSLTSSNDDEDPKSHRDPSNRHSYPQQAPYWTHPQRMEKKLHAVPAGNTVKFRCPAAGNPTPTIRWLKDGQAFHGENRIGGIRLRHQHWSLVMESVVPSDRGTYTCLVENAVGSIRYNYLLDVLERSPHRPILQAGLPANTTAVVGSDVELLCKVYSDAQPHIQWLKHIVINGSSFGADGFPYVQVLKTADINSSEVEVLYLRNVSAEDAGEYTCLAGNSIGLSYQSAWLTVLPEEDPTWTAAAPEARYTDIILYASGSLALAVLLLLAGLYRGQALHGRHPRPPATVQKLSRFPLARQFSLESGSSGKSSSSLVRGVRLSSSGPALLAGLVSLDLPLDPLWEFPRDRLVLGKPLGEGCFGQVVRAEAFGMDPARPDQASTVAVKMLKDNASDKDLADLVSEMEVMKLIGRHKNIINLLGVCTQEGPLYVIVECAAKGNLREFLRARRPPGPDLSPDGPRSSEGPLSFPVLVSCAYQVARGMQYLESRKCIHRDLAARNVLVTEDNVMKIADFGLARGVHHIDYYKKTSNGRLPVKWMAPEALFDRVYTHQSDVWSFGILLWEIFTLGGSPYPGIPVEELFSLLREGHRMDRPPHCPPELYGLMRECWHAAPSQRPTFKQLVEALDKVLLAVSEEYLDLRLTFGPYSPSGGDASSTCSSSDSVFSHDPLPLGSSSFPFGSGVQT

Row | SMILES | Kd (FGFR1; read-out: FGFR1 (Kd nM)) [nM] | Kd (FGFR2; read-out: FGFR2 (Kd nM)) [nM] | Kd (FGFR3; read-out: FGFR3 (Kd nM)) [nM] | Kd (FGFR3 (V555M); [4]) [nM] | Kd (FGFR4; read-out: FGFR4 (Kd nM)) [nM] | IC50 [1, 5] [nM] | IC50 [2, 6] [nM] | IC50 ([3]; KATO III) [nM] | IC50 ([1]; KG-1 cell line (FGFR1-fusion)) [nM] | IC50 [2, 7] [nM] | IC50 [3] [nM] | Kd (FGFR1) [nM] | Kd (FGFR2; FGFR2 (Kd nM)) [nM] | Kd (FGFR3) [nM] | Kd (FGFR3 (V555M)) [nM] | Kd (FGFR4) [nM]
1 | C[C@@H](Oc1cc2c(-c3cnc(N4CC(C)(N5CCOCC5)C4)c(F)c3)n[nH]c2cc1F)c1c(Cl)cncc1Cl [Example 158, (R)-4-(1-(5-(5-(1-(3,5-Dichloropyridin-4-yl)ethoxy)-6-fluoro-1H-indazol-3-yl)-3-fluoropyridin-2-yl)-3-methylazetidin-3-yl)morpholine] | 1 to 50 | 1 to 50 | 1 to 50 | 1 to 50 | 1 to 50 | 50 to 200 | 0.1 to 50 | 0.1 to 50 | – | – | – | – | – | – | – | –
2 | COc1cc2[nH]nc(-c3cnc(N4CC(C)(NCC(C)(C)O)C4)c(F)c3)c2cc1O[C@H](C)c1c(Cl)cncc1Cl [Example 159] | 1 to 50 | 1 to 50 | 1 to 50 | 1 to 50 | 1 to 50 | 0.1 to 50 | 0.1 to 50 | 0.1 to 50 | – | – | – | – | – | – | – | –
3 | COc1cc2[nH]nc(-c3cnc(N4CC(C)(NC[C@H](C)O)C4)c(F)c3)c2cc1O[C@H](C)c1c(Cl)cncc1Cl [Example 160, (S)-1-((1-(5-(5-((R)-1-(3,5-dichloropyridin-4-yl)ethoxy)-6-methoxy-1H-indazol-3-yl)-3-fluoropyridin-2-yl)-3-methylazetidin-3-yl)amino)propan-2-ol] | 1 to 50 | 1 to 50 | 1 to 50 | 1 to 50 | 1 to 50 | 0.1 to 50 | 0.1 to 50 | 0.1 to 50 | – | – | – | – | – | – | – | –
4 | COc1cc2[nH]nc(-c3cnc(N4CC(C)(NC[C@@H](C)O)C4)c(F)c3)c2cc1O[C@H](C)c1c(Cl)cncc1Cl [Example 161, (R)-1-((1-(5-(5-((R)-1-(3,5-dichloropyridin-4-yl)ethoxy)-6-methoxy-1H-indazol-3-yl)-3-fluoropyridin-2-yl)-3-methylazetidin-3-yl)amino)propan-2-ol] | 1 to 50 | 1 to 50 | 1 to 50 | 1 to 50 | 1 to 50 | 0.1 to 50 | 0.1 to 50 | 0.1 to 50 | – | – | – | – | – | – | – | –
5 | C[C@@H](Oc1ccc2[nH]nc(-c3cnc(N4CC(C)(NCC(C)(C)O)C4)c(F)c3)c2c1F)c1c(Cl)cncc1Cl [Example 170, (R)-1-((1-(5-(5-(1-(3,5-dichloro-pyridin-4-yl)ethoxy)-4-fluoro-1H-indazol-3-yl)-3-fluoropyridin-2-yl)-3-methylazetidin-3-yl)amino)-2-methylpropan-2-ol] | > 1000 | > 1000 | 50 to 300 | 50 to 300 | 300 to 1000 | > 1000 | > 1000 | > 1000 | – | – | – | – | – | – | – | –
6 | CNC1(C)CN(c2ncc(-c3n[nH]c4ccc(O[C@H](C)c5c(Cl)cncc5Cl)cc34)cc2F)C1 [Example 171, (R)-1-(5-(5-(1-(3,5-dichloropyridin-4-yl)ethoxy)-1H-indazol-3-yl)-3-fluoropyridin-2-yl)-N,3-dimethylazetidin-3-amine] | 1 to 50 | 1 to 50 | 1 to 50 | 1 to 50 | 1 to 50 | 0.1 to 50 | 0.1 to 50 | 0.1 to 50 | – | – | – | – | – | – | – | –
7 | COP(=O)(CC1(C)CN(c2ccc(-c3n[nH]c4ccc(O[C@H](C)c5c(Cl)cncc5Cl)cc34)cn2)C1)OC [Example 214, (R)-dimethyl ((1-(5-(5-(1-(3,5-dichloropyridin-4-yl)ethoxy)-1H-indazol-3-yl)pyridin-2-yl)-3-methylazetidin-3-yl)methyl)phosphonate] | 1 to 50 | 1 to 50 | 1 to 50 | 1 to 50 | 1 to 50 | – | – | – | 50 to 200 | 0.1 to 50 | 0.1 to 50 | – | – | – | – | –
8 | COP(=O)(CC1(C)CN(c2ncc(-c3n[nH]c4ccc(O[C@H](C)c5c(Cl)cncc5Cl)cc34)cc2F)C1)OC [Example 215, (R)-dimethyl ((1-(5-(5-(1-(3,5-dichloropyridin-4-yl)ethoxy)-1H-indazol-3-yl)-3-fluoropyridin-2-yl)-3-methylazetidin-3-yl)methyl)phos-phonate] | – | – | – | – | – | – | – | – | 50 to 200 | 0.1 to 50 | 50 to 200 | 1 to 50 | 1 to 50 | 1 to 50 | 1 to 50 | 1 to 50
9 | C[C@@H](Oc1ccc2[nH]nc(-c3cnc(N4CC(C)(N5CC6CC(C5)O6)C4)c(F)c3)c2c1)c1c(Cl)cncc1Cl [Example 217, 3-(1-(5-(5-((R)-1-(3,5-dichloropyridin-4-yl)ethoxy)-1H-indazol-3-yl)-3-fluoropyridin-2-yl)-3-methylazetidin-3-yl)-6-oxa-3-aza-bicyclo[3.1.1]hep-tane] | 1 to 50 | 1 to 50 | 1 to 50 | 1 to 50 | 1 to 50 | 50 to 200 | 0.1 to 50 | 0.1 to 50 | – | – | – | – | – | – | – | –

The next lines start with results.

Row | Kd (FGFR1; read-out: FGFR1 (Kd nM)) [nM] | Kd (FGFR2; read-out: FGFR2 (Kd nM)) [nM] | Kd (FGFR3; read-out: FGFR3 (Kd nM)) [nM] | Kd (FGFR3 (V555M); [4]) [nM] | Kd (FGFR4; read-out: FGFR4 (Kd nM)) [nM] | IC50 [1, 5] [nM] | IC50 [2, 6] [nM] | IC50 ([3]; KATO III) [nM] | SMILES | IC50 ([1]; KG-1 cell line (FGFR1-fusion)) [nM] | IC50 [2, 7] [nM] | IC50 [3] [nM] | Kd (FGFR1) [nM] | Kd (FGFR2; FGFR2 (Kd nM)) [nM] | Kd (FGFR3) [nM] | Kd (FGFR3 (V555M)) [nM] | Kd (FGFR4) [nM]
10 | 1 to 50 | 1 to 50 | 1 to 50 | 1 to 50 | 1 to 50 | 50 to 200 | 50 to 200 | 50 to 200 | Cc1ncc(Cl)c([C@@H](C)Oc2ccc3[nH]nc(-c4cnc(N5CC(C)(NCC6CC6)C5)c(F)c4)c3c2)c1Cl [Example 209, N-(cyclo-propylmethyl)-1-[5-[5-[(1R)-1-(3,5-dichloro-2-methyl-4-pyridyl)ethoxy]-1H-indazol-3-yl]-3-fluoro-2-pyridyl]-3-methyl-azetidin-3-amine] | – | – | – | – | – | – | – | –
11 | 50 to 300 | 1 to 50 | 1 to 50 | 1 to 50 | 1 to 50 | 200 to 1000 | 0.1 to 50 | 50 to 200 | Cc1ncc(Cl)c([C@@H](C)Oc2ccc3[nH]nc(-c4cnc(N5CC(C)(CS(C)(=O)=O)C5)c(F)c4)c3c2)c1Cl [Example 210, 5-[(1R)-1-(3,5-dichloro-2-methyl-4-pyridyl)ethoxy]-3-[5-fluoro-6-[3-methyl-3-(methylsulfonyl-methyl)azetidin-1-yl]-3-pyridyl]-1H-indazole] | – | – | – | – | – | – | – | –
12 | 1 to 50 | 1 to 50 | 1 to 50 | 1 to 50 | 1 to 50 | 50 to 200 | 0.1 to 50 | 0.1 to 50 | C[C@@H]1CN(C2(C)CN(c3ccc(-c4n[nH]c5ccc(O[C@H](C)c6c(Cl)cncc6Cl)cc45)cn3)C2)CCO1 [Example 211, (R)-4-(1-(5-(5-((R)-1-(3,5-dichloropyridin-4-yl)ethoxy)-1H-indazol-3-yl)pyridin-2-yl)-3-methylazetidin-3-yl)-2-methylmorpholine] | – | – | – | – | – | – | – | –
13 | 1 to 50 | 1 to 50 | 1 to 50 | 1 to 50 | 1 to 50 | 50 to 200 | 0.1 to 50 | 0.1 to 50 | C[C@H]1CN(C2(C)CN(c3ccc(-c4n[nH]c5ccc(O[C@H](C)c6c(Cl)cncc6Cl)cc45)cn3)C2)CCO1 [Example 212, (S)-4-(1-(5-(5-((R)-1-(3,5-dichloropyridin-4-yl)ethoxy)-1H-indazol-3-yl)pyridin-2-yl)-3-methylazetidin-3-yl)-2-methylmorpholine] | – | – | – | – | – | – | – | –
14 | 1 to 50 | 1 to 50 | 1 to 50 | 1 to 50 | 1 to 50 | 200 to 1000 | 0.1 to 50 | 50 to 200 | C[C@@H]1CN(C2(C)CN(c3ncc(-c4n[nH]c5ccc(O[C@H](C)c6c(Cl)cncc6Cl)cc45)cc3F)C2)CCO1 [Example 213, (R)-4-(1-(5-(5-((R)-1-(3,5-dichloropyridin-4-yl)ethoxy)-1H-indazol-3-yl)-3-fluoropyridin-2-yl)-3-methylazetidin-3-yl)-2-methylmorpholine] | – | – | – | – | – | – | – | –
15 | 1 to 50 | 1 to 50 | 1 to 50 | 1 to 50 | 1 to 50 | 50 to 200 | 0.1 to 50 | 50 to 200 | C[C@H]1CN(C2(C)CN(c3ncc(-c4n[nH]c5ccc(O[C@H](C)c6c(Cl)cncc6Cl)cc45)cc3F)C2)CCO1 [Example 216, (S)-4-(1-(5-(5-((R)-1-(3,5-dichloropyridin-4-yl)ethoxy)-1H-indazol-3-yl)-3-fluoropyridin-2-yl)-3-methylazetidin-3-yl)-2-methylmorpholine] | – | – | – | – | – | – | – | –
16 | 1 to 50 | 1 to 50 | 1 to 50 | 1 to 50 | 1 to 50 | 0.1 to 50 | 0.1 to 50 | 0.1 to 50 | C[C@@H](Oc1ccc2[nH]nc(-c3cnc(N4CC(C)(N5C[C@@H]6C[C@H]5CO6)C4)c(F)c3)c2c1)c1c(Cl)cncc1Cl [Example 218, (1S,4S)-5-(1-(5-(5-((R)-1-(3,5-dichloropyridin-4-yl)ethoxy)-1H-indazol-3-yl)-3-fluoropyridin-2-yl)-3-methylazetidin-3-yl)-2-oxa-5-aza-bicyclo[2.2.1]hep-tane] | – | – | – | – | – | – | – | –

From patent publication US20250368666A1, “INDAZOLE COMPOUNDS” (TYRA BIOSCIENCES, INC., priority 2022, published 2025)
